Measurements as given in patent US7192746B2, “α-Isomaltosyltransferase, process for producing the same and use thereof” (Kabushiki Kaisha Hayashibara Seibutsu Kagaku Kenkyujo, priority 2000, dated 2007).

What was measured:
Type in all cases: biochemical
[1] = test system: α-isomaltosyl-transferring enzyme from Bacillus globisporus C11; experiment: Formation of cyclotetrasaccharide from components A, B and C; conditions: Enzyme of Strain C11; for Saccharide composition, remaining Substrate: 1% (w/v) substrate, pH 6.0, 1 unit/g substrate; for Saccharide composition, remaining Substrate / Saccharide composition, Cyclotetrasaccharide / Saccharide composition, Glucose / Saccharide composition, Others: 35° C., 8 hours
Description: (§1) Using a purified α-isomaltosyl-transferring enzyme, the formation of cyclotetrasaccharide from the above-identified components A, B and C was examined as follows: One percent (w/v) of an aqueous solution (pH 6.0) of the component A (3-O-α-isomaltosylpanose represented by Chemical Formula 1), the component B (4-O-α-isomaltosylpanose represented by Chemical Formula 2), or the component C (1-O-α-isomaltosyl-β-panoside represented by Chemical Formula 3) was prepared into a substrate solution. To each of the resulting solutions was added one unit/g substrate of a purified specimen of α-isomaltosyl-transferring enzyme from Bacillus globisporus C9 obtained by the method in Experiment 4, or Bacillus globisporus C11 obtained by the method in Experiment 7, followed by enzymatic reaction at 35° C. for eight hours. Thereafter, the resulting mixtures were analyzed on HPLC for saccharide composition (%).

[2] = test system: α-isomaltosyl-transferring enzyme from Bacillus globisporus C9; experiment: as above; conditions: Enzyme of Strain C9; for Saccharide composition, remaining Substrate: 1% (w/v) substrate, pH 6.0, 1 unit/g substrate; for Saccharide composition, remaining Substrate / Saccharide composition, Cyclotetrasaccharide / Saccharide composition, Glucose / Saccharide composition, Others: 35° C., 8 hours
Description: as §1

[3] = test system: α-isomaltosyl-transferring enzyme from Arthrobacter globiformis A19; experiment: Action on saccharides (substrates, TLC); parameters: key: −: there was found no substrate change before and after the enzymatic reaction; +: there were found both the reduction of substrate and the formation of cyclotetrasaccharide after the enzymatic reaction; conditions: partially purified enzyme, 2 units/g substrate, 2% (w/v) substrate, 30° C., pH 6.0, 24 hours
Summary of the method: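 Substrates 2% (w/v), enzyme 2 units/g substrate, pH 6.0, 30° C., 24 h. Read-out: silica TLC, n-butanol:pyridine:water 6:4:1; sulfuric acid-methanol (total sugar) and diphenylamine-aniline (reducing sugar) staining, pre- vs post-reaction.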

[4] = test system: α-isomaltosyl-transferring enzyme from Bacillus globisporus N75; experiment: Action on saccharides (substrates, TLC); parameters: key: −: there was found no substrate change before and after the enzymatic reaction; +: there were found both the reduction of substrate and the formation of cyclotetrasaccharide after the enzymatic reaction; conditions: 2 units/g substrate, 2% (w/v) substrate, 30° C., pH 6.0, 24 hours
Summary of the method: (§2)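 TLC detection used sulfuric acid-methanol coloration for all sugars and diphenylamine-aniline for reducing ones, after development in n-butanol/pyridine/water (6:4:1). Reactions contained 2% (w/v) substrate and 2 units/g substrate of purified enzyme, incubated 24 hours at 30° C., pH 6.0.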

[5] = test system: α-isomaltosyl-transferring enzyme from Bacillus globisporus C11; experiment: Action on saccharides (substrates, TLC); parameters: key: −: there was found no substrate change before and after the enzymatic reaction; +: there were found both the reduction of substrate and the formation of cyclotetrasaccharide after the enzymatic reaction; conditions: 2 units/g substrate, 2% (w/v) substrate, 30° C., pH 6.0, 24 hours
Summary of the method: as §2

[6] = test system: α-isomaltosyl-transferring enzyme from Arthrobacter ramosus S1; experiment: Action on saccharides (substrates, TLC); parameters: key: −: there was found no substrate change before and after the enzymatic reaction; +: there were found both the reduction of substrate and the formation of cyclotetrasaccharide after the enzymatic reaction; conditions: 2 units/g substrate, 2% (w/v) substrate, 30° C., pH 6.0, 24 hours
Summary of the method: as §2

[7] = test system: α-isomaltosyl-transferring enzyme from Bacillus globisporus C9; experiment: Action on saccharides (substrates, TLC); parameters: key: −: there was found no substrate change before and after the enzymatic reaction; +: there were found both the reduction of substrate and the formation of cyclotetrasaccharide after the enzymatic reaction; conditions: 2 units/g substrate, 2% (w/v) substrate, 30° C., pH 6.0, 24 hours
Summary of the method: as §2

[8] = test system: α-isomaltosyl-transferring enzyme from Bacillus globisporus N75; experiment: Formation of reducing power from high molecular glucans; conditions: Enzyme of Strain N75
Description: (§3) In the above experiment, no detectable amount of a lower molecular weight saccharide such as cyclotetrasaccharide detectable on TLC was formed from soluble starch, pullulan and dextran as high molecular glucans. The following test was carried out to confirm that the α-isomaltosyl-transferring enzyme of the present invention neither increase the reducing power of the above high molecular glucans nor hydrolyze them. To a solution of soluble starch, pullulan or dextran was added 12 units/g substrate of a purified specimen of α-isomaltosyl-transferring enzyme from either Bacillus globisporus C9 obtained by the method in Experiment 4, Bacillus globisporus C11 obtained by the method in Experiment 7, Bacillus globisporus N75 obtained by the method in Experiment 11, or Arthrobacter ramosus S1 obtained by the method in Experiment 15. The resulting each solution was adjusted to give a substrate concentration of one percent (w/v) and incubated at 35° C. and pH 6.0 for four hours. The reducing saccharide contents and the total sugar contents in the resulting reaction mixtures after the enzymatic reactions were respectively quantified by the Somogyi-Nelson's method and the anthrone-sulfuric acid reaction method. The percentage of forming reducing power was calculated by the following equation, and the results are in Table 13:
(§4) [formula] [formula] AR: Reducing sugar content after enzymatic reaction. AT: Total sugar content after enzymatic reaction. BR: Reducing sugar content before enzymatic reaction. BT: Total sugar content before enzymatic reaction.

[9] = test system: α-isomaltosyl-transferring enzyme from Arthrobacter ramosus S1; experiment: as above; conditions: printed Enzyme of Strain N75 a second time
Description: as §3, §4

[10] = test system: α-isomaltosyl-transferring enzyme from Bacillus globisporus C11; experiment: as above; conditions: Enzyme of Strain C11
Description: as §3, with “The resulting each solution was adjusted to give a substrate concentration of one percent (w/v) and incubated at 35° C. and pH 6.0 for four hours.” left out
as §4

[11] = test system: α-isomaltosyl-transferring enzyme from Bacillus globisporus C9; experiment: as above; conditions: Enzyme of Strain C9
Description: as §3, with “The resulting each solution was adjusted to give a substrate concentration of one percent (w/v) and incubated at 35° C. and pH 6.0 for four hours.” left out
as §4

[12] = 0 hr, 12 units/g substrate, 1% (w/v), 35° C., pH 6.0

Row | Molecule | Enzymatic action for forming cyclotetrasaccharide, Enzyme of Strain A19 [3] | Enzymatic action for forming cyclotetrasaccharide, Enzyme of Strain N75 [4] | Enzymatic action for forming cyclotetrasaccharide, Enzyme of Strain C11 [5] | Enzymatic action for forming cyclotetrasaccharide, Enzyme of Strain S1 [6] | Enzymatic action for forming cyclotetrasaccharide, Enzyme of Strain C9 [7] | Percentage of forming reducing power [8, 12] | Percentage of forming reducing power ([8]; 1 hr) | Percentage of forming reducing power ([8]; 2 hr) | Percentage of forming reducing power ([8]; 3 hr) | Percentage of forming reducing power ([8]; 4 hr) | Percentage of forming reducing power [9, 12] | Percentage of forming reducing power ([9]; 1 hr) | Percentage of forming reducing power ([9]; 2 hr) | Percentage of forming reducing power ([9]; 3 hr) | Percentage of forming reducing power ([9]; 4 hr) | Percentage of forming reducing power [10, 12] | Percentage of forming reducing power ([10]; 1 hr) | Percentage of forming reducing power ([10]; 2 hr) | Percentage of forming reducing power ([10]; 3 hr) | Percentage of forming reducing power ([10]; 4 hr) | other results
1 | OC[C@H]1O[C@H](OC[C@H]2O[C@H](O[C@@H]3[C@@H](O)[C@@H](OC[C@H]4O[C@H](O[C@H]5[C@H](O)[C@@H](O)C(O)O[C@@H]5CO)[C@H](O)[C@@H](O)[C@@H]4O)O[C@H](CO)[C@H]3O)[C@H](O)[C@@H](O)[C@@H]2O)[C@H](O)[C@@H](O)[C@@H]1O (stereo partly drawn) [Component A, 3-O-α-isomaltosylpanose] |  |  |  |  |  |  |  |  |  |  |  |  |  |  |  |  |  |  |  |  | Saccharide composition, remaining Substrate [1]: 9.0%; Saccharide composition, Cyclotetrasaccharide [1]: 67.4%; Saccharide composition, Glucose [1]: 17.4%; Saccharide composition, Others [1]: 6.2%; Molar ratio of the formed glucose and cyclotetrasaccharide: cyclotetrasaccharide ([1]; numeral in parenthesis): (1.08); Molar ratio of the formed glucose and cyclotetrasaccharide: glucose ([1]; numeral in parenthesis): (1.00); Saccharide composition, remaining Substrate [2]: 9.3%; Saccharide composition, Cyclotetrasaccharide [2]: 67.6%; Saccharide composition, Glucose [2]: 17.2%; Saccharide composition, Others [2]: 5.9%; Molar ratio of the formed glucose and cyclotetrasaccharide: cyclotetrasaccharide ([2]; numeral in parenthesis): (1.09); Molar ratio of the formed glucose and cyclotetrasaccharide: glucose ([2]; numeral in parenthesis): (1.00)
2 | OC[C@H]1O[C@H](OC[C@H]2O[C@H](O[C@H]3[C@H](O)[C@@H](O)[C@@H](OC[C@H]4O[C@H](O[C@H]5[C@H](O)[C@@H](O)C(O)O[C@@H]5CO)[C@H](O)[C@@H](O)[C@@H]4O)O[C@@H]3CO)[C@H](O)[C@@H](O)[C@@H]2O)[C@H](O)[C@@H](O)[C@@H]1O (stereo partly drawn) [Component B, 4-O-α-isomaltosylpanose] |  |  |  |  |  |  |  |  |  |  |  |  |  |  |  |  |  |  |  |  | Saccharide composition, remaining Substrate [1]: 77.0%; Saccharide composition, Cyclotetrasaccharide [1]: 5.0%; Saccharide composition, Glucose [1]: 0.6%; Saccharide composition, Others [1]: 17.4%; Saccharide composition, remaining Substrate [2]: 77.1%; Saccharide composition, Cyclotetrasaccharide [2]: 5.1%; Saccharide composition, Glucose [2]: 0.7%; Saccharide composition, Others [2]: 17.1%
3 | dextran | − | − | − | − | − | 0.0% | 0.0% | 0.0% | 0.0% | 0.0% | 0.0% | 0.0% | 0.0% | 0.0% | 0.0% | 0.0% | 0.0% | 0.0% | 0.0% | 0.0% | Percentage of forming reducing power [11, 12]: 0.0%; Percentage of forming reducing power ([11]; 1 hr): 0.0%; Percentage of forming reducing power ([11]; 2 hr): 0.0%; Percentage of forming reducing power ([11]; 3 hr): 0.1%; Percentage of forming reducing power ([11]; 4 hr): 0.0%
4 | pullulan | − | − | − | − | − | 0.0% | 0.0% | 0.0% | 0.0% | 0.0% | 0.0% | 0.0% | 0.0% | 0.0% | 0.0% | 0.0% | 0.0% | 0.0% | 0.0% | 0.0% | Percentage of forming reducing power [11, 12]: 0.0%; Percentage of forming reducing power ([11]; 1 hr): 0.0%; Percentage of forming reducing power ([11]; 2 hr): 0.0%; Percentage of forming reducing power ([11]; 3 hr): 0.0%; Percentage of forming reducing power ([11]; 4 hr): 0.0%
5 | soluble starch | − | − | − | − | − | 0.0% | 0.0% | 0.0% | 0.0% | 0.0% | 0.0% | 0.0% | 0.0% | 0.0% | 0.0% | 0.0% | 0.1% | 0.0% | 0.0% | 0.0% | Percentage of forming reducing power [11, 12]: 0.0%; Percentage of forming reducing power ([11]; 1 hr): 0.0%; Percentage of forming reducing power ([11]; 2 hr): 0.0%; Percentage of forming reducing power ([11]; 3 hr): 0.0%; Percentage of forming reducing power ([11]; 4 hr): 0.0%
